# Values quoted from earlier work as cited in publication PMC4224523 (Molecular Pharmaceutics, 2014).
# Conditions: general statement in introduction
structure (smiles),measurement,value
"FC1(F)OC(F)(F)C(F)(F)OC(F)(F)C(F)(F)OC(F)(F)C(F)(F)OC(F)(F)C(F)(F)OC1(F)F [PFCE, Perfluoro-15-crown-5-ether]",solubility in solvents,insoluble in most solvents
